Where a name gives a salt, the structure may show the parent alone.
Target: LsrK (Salmonella typhimurium, UniProt Q8ZKQ6)
Assay: biochemical
Assay type: biochemical, S. typhimurium
Details: not given

Chain of LsrK (Q8ZKQ6 whole entry): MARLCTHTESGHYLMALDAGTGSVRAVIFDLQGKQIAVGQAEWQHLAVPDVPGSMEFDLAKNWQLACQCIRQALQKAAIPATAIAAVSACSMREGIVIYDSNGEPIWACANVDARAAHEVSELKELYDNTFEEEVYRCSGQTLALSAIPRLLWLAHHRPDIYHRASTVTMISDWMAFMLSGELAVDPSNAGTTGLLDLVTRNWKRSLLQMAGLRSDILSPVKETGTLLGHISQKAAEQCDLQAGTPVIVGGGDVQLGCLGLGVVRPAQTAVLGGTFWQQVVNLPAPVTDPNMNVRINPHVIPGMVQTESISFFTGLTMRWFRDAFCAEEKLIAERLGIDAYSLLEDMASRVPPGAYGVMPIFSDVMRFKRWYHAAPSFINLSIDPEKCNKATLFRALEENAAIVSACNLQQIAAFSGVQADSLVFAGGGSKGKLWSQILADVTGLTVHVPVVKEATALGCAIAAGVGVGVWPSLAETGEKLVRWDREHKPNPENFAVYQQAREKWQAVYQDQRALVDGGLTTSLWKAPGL

| Structure (SMILES) | inhibition at 50 µM [%] | IC50 [µM] |
| --- | --- | --- |
| CC(C)(C)CC(C)(C)c1ccc(O)c(Cc2ccc(Cl)cc2Cl)c1 [CLOFOCTOL] | 2 |  |
| COC(=O)[C@H](c1ccccc1Cl)N1CCc2sccc2C1 [CLOPIDOGREL SULFATE] | 11 |  |
| Cc1nc(C)c(Cl)c(O)c1Cl [CLOPIDOL] | 2 |  |
| C=C[C@@]1(C)CC(=O)[C@]2(O)[C@@]3(C)[C@@H](O)CCC(C)(C)[C@@H]3[C@H](O)[C@H](OC(C)=O)[C@@]2(C)O1 [COLFORSIN] | 1 |  |
| C[C@H]1[C@H]2CC[C@H]3[C@@H]4CC=C5C[C@@H](N(C)C)CC[C@]5(C)[C@H]4CC[C@]23CN1C [CONESSINE] | 2 |  |
| C[C@@H]1O[C@@H](O[C@H]2CC[C@]3(C=O)[C@H]4CC[C@]5(C)[C@@H](C6=CC(=O)OC6)CC[C@]5(O)[C@@H]4CC[C@]3(O)C2)[C@H](O)[C@H](O)[C@H]1O [CONVALLATOXIN] | 1 |  |
| COc1c2c(cc3c1OCO3)CC[N+](C)=C2 [COTARNINE CHLORIDE] | 2 |  |
| C[C@H]1COC2=C1C(=O)C(=O)c1c2ccc2c1CCCC2(C)C [CRYPTOTANSHINONE] | 16 |  |
| COc1cc(/C=C/C(=O)CC(=O)/C=C/c2ccc(O)c(OC)c2)ccc1O [CURCUMIN] | 1 |  |
| NC1=NCCN1CC(=O)O [CYCLOCREATINE] | 0 |  |
| N[C@@H]1CON=C1O [CYCLOSERINE] | 0 |  |
| CC1(C)C(C=C(Cl)Cl)C1C(=O)OC(C#N)c1cccc(Oc2ccccc2)c1 (stereo not drawn) [CYPERMETHRIN] | 3 |  |
| CC(=O)O[C@]1(C(C)=O)CC[C@H]2[C@@H]3C=C(Cl)C4=CC(=O)[C@@H]5C[C@@H]5[C@]4(C)[C@H]3CC[C@@]21C [CYPROTERONE ACETATE] | 0 |  |
| O=c1cccc2n1C[C@@H]1CNC[C@H]2C1 [CYTISINE] | 3 |  |
| CN(C)/N=N/c1[nH]cnc1C(N)=O [DACARBAZINE] | 3 |  |
| C=CC(C1=CC(=O)C=CC1=O)c1ccccc1 (stereo not drawn) [DALBERGIONE] | 91 |  |
| O=C1c2cccc(O)c2C(=O)c2c(O)cccc21 [DANTHRON] | 1 |  |
| O=C1CN(/N=C/c2ccc(-c3ccc([N+](=O)[O-])cc3)o2)C(O)=N1 [DANTROLENE SODIUM] | 3 |  |
| Nc1ccc(S(=O)(=O)c2ccc(N)cc2)cc1 [DAPSONE] | 0 |  |
| NC(=O)C(c1ccccc1)(c1ccccc1)[C@@H]1CCN(CCc2ccc3c(c2)CCO3)C1 [DARIFENACIN HYDROBROMIDE] | 2 |  |
| COc1cccc2c1C(=O)c1c(O)c3c(c(O)c1C2=O)C[C@@](O)(C(C)=O)C[C@@H]3O[C@H]1C[C@H](N)[C@H](O)[C@H](C)O1 [DAUNORUBICIN] | 2 |  |

| Structure (SMILES) | inhibition at 50 µM [%] | IC50 [µM] |
| --- | --- | --- |
| CC1(C)C(=O)C=C[C@]2(C)[C@H]3CC[C@@]4(C)[C@H](c5ccoc5)OC(=O)[C@H]5O[C@]54[C@]3(C)C(=O)C[C@@H]12 [DEACETOXY-7-OXOGEDUNIN] | 2 |  |
| CC1(C)C(=O)C=C[C@]2(C)[C@H]3CC[C@@]4(C)[C@H](c5ccoc5)OC(=O)[C@H]5O[C@]54[C@]3(C)[C@H](O)C[C@@H]12 [DEACETYLGEDUNIN] | 1 |  |
| C[N+](C)(C)CCCCCCCCCC[N+](C)(C)C [DECAMETHONIUM BROMIDE] | 0 |  |
| CCCCCCCCCCOc1cc2c(O)c(C(=O)OCC)cnc2cc1OCC [DECOQUINATE] | 36 |  |
| CC(=O)N(O)CCCCCNC(=O)CCC(=O)N(O)CCCCCNC(=O)CCC(=O)N(O)CCCCCN [DEFEROXAMINE MESYLATE] | 1 |  |
| CC(C)c1ccc2c(c1)CC[C@H]1[C@](C)(C(N)=O)CCC[C@]21C [DEHYDROABIETAMIDE] | 2 |  |
| C[C@H](CCC(=O)O)[C@H]1CC[C@H]2[C@@H]3C(=O)C[C@@H]4CC(=O)CC[C@]4(C)[C@H]3CC(=O)[C@]12C [DEHYDROCHOLIC ACID] | 4 |  |
| C=C(C)[C@H]1Cc2c(ccc3c(=O)c4c(oc23)COc2cc(OC)c(OC)cc2-4)O1 [DEHYDROROTENONE] | 1 |  |
| COc1ccc2c(c1)OCc1c-2oc2cc(OC)ccc12 [DEHYDROVARIABILIN] | 1 |  |
| CN(C)[C@@H]1C(O)=C(C(N)=O)C(=O)[C@@]2(O)C(O)=C3C(=O)c4c(O)ccc(Cl)c4[C@@H](O)[C@H]3C[C@@H]12 [DEMECLOCYCLINE HYDROCHLORIDE] | 109 |  |
| CC[N+](CC)(CC(=O)Nc1c(C)cccc1C)Cc1ccccc1 [DENATONIUM BENZOATE] | 1 |  |
| Nc1ncnc2c1ncn2[C@H]1C[C@H](O)[C@@H](CO)O1 [DEOXYADENOSINE] | 3 |  |
| COc1ccc(-c2cc(C(F)F)nn2-c2ccc(S(N)(=O)=O)cc2)cc1F [DERACOXIB] | 2 |  |
| CC1(C)O[C@@H]2C[C@H]3[C@@H]4CCC5=CC(=O)C=C[C@]5(C)[C@H]4[C@@H](O)C[C@]3(C)[C@]2(C(=O)CO)O1 [DESONIDE] | 0 |  |
| CC(=O)OCC(=O)[C@H]1CC[C@H]2[C@@H]3CCC4=CC(=O)CC[C@]4(C)[C@H]3CC[C@]12C [DESOXYCORTICOSTERONE ACETATE] | 1 |  |
| c1ccc2c(c1)CN1CCCC1=N2 [DESOXYPEGANINE HYDROCHLORIDE] | 0 |  |
| CC(=O)OCC(=O)[C@@]1(O)[C@H](C)C[C@H]2[C@@H]3CCC4=CC(=O)C=C[C@]4(C)[C@@]3(F)[C@@H](O)C[C@@]21C [DEXAMETHASONE ACETATE] | 0 |  |
| NC[C@@H]1CC[C@@H](N)[C@@H](O[C@H]2[C@H](O)[C@@H](O[C@H]3O[C@H](CO)[C@@H](O)[C@H](N)[C@H]3O)[C@H](N)C[C@@H]2N)O1 [DIBEKACIN] | 0 |  |
| c1ccc2c(c1)sc1ccccc12 [DIBENZOTHIOPHENE] | 0 |  |
| CCCCOC(=O)c1ccccc1C(=O)OCCCC [DIBUTYL PHTHALATE] | 0 |  |
| Oc1ccc(Cl)cc1Cc1cc(Cl)ccc1O [DICHLOROPHENE] | 1 |  |

| Structure (SMILES) | inhibition at 50 µM [%] | IC50 [µM] |
| --- | --- | --- |
| Cc1onc(-c2c(Cl)cccc2Cl)c1C(=O)N[C@@H]1C(=O)N2[C@@H]1SC(C)(C)[C@@H]2C(=O)O [DICLOXACILLIN SODIUM] | 0 |  |
| O=c1oc2ccccc2c(O)c1Cc1c(O)c2ccccc2oc1=O [DICUMAROL] | 4 |  |
| C/C=C(/C(=C/C)c1ccc(O)cc1)c1ccc(O)cc1 [DIENESTROL] | 2 |  |
| CCN(CC)C(=O)N1CCN(C)CC1 [DIETHYLCARBAMAZINE CITRATE] | 1 |  |
| O=C(O)c1cc(-c2ccc(F)cc2F)ccc1O [DIFLUNISAL] | 5 |  |
| C[C@]12CC[C@H](O)C[C@H]1CC[C@@H]1[C@@H]2C[C@@H](O)[C@]2(C)[C@@H](C3=CC(=O)OC3)CC[C@]12O [DIGOXIGENIN] | 2 |  |
| Cc1c(O)c(O)cc2c1CC=C1[C@@]2(C)CC[C@@]2(C)[C@@H]3C[C@](C)(C(=O)O)CC[C@]3(C)CC[C@]12C [DIHYDROCELASTROL] | 105 | 21 |
| Nc1nc2c(c(=O)[nH]1)N=C(CNc1ccc(C(=O)N[C@@H](CCC(=O)O)C(=O)O)cc1)CN2 [DIHYDROFOLIC ACID] | 49 |  |
| CCCCCC1C(=O)CCC1CC(=O)O (stereo not drawn) [DIHYDROJASMONIC ACID] | 1 |  |
| Cc1cccc2c3c(ccc12)C1=C(C(=O)C3=O)[C@@H](C)CO1 [DIHYDROTANSHINONE I] | 115 |  |
| CN(C(=O)C(Cl)Cl)c1ccc(OC(=O)c2ccco2)cc1 [DILOXANIDE FUROATE] | 4 |  |
| OCC(S)CS (stereo not drawn) [DIMERCAPROL] | 125 |  |
| OCCN(CCO)c1nc(N2CCCCC2)c2nc(N(CCO)CCO)nc(N3CCCCC3)c2n1 [DIPYRIDAMOLE] | 2 |  |
| CC(CCc1ccc(O)cc1)NCCc1ccc(O)c(O)c1 (stereo not drawn) [DOBUTAMINE HYDROCHLORIDE] | 3 |  |
| COc1cc2c(cc1OC)C(=O)C(CC1CCN(Cc3ccccc3)CC1)C2 (stereo not drawn) [DONEPEZIL HYDROCHLORIDE] | 2 |  |
| NCCc1ccc(O)c(O)c1 [DOPAMINE HYDROCHLORIDE] | 2 |  |
| COc1cc2nc(N3CCN(C(=O)C4COc5ccccc5O4)CC3)nc(N)c2cc1OC (stereo not drawn) [DOXAZOSIN MESYLATE] | 0 |  |
| C[C@H]1O[C@@H](n2cc(F)c(=O)[nH]c2=O)[C@H](O)[C@@H]1O [DOXIFLURIDINE] | 1 |  |
| C[C@H]1c2cccc(O)c2C(=O)C2=C(O)[C@]3(O)C(=O)C(C(N)=O)=C(O)[C@@H](N(C)C)[C@@H]3[C@@H](O)[C@@H]21 [DOXYCYCLINE HYDROCHLORIDE] | 106 |  |

Same assay, conditions: 50 µM

| Structure (SMILES) | Inhibition (%) |
| --- | --- |
| C/C1=C2/[N-][C@H]([C@H](CC(N)=O)[C@@]2(C)CCC(=O)NC[C@@H](C)OP(=O)([O-])O[C@H]2[C@@H](O)[C@@H](n3cnc4cc(C)c(C)cc43)O[C@@H]2CO)[C@]2(C)N=C(/C(C)=C3N=C(/C=C4N=C1[C@@H](CCC(N)=O)C\4(C)C)[C@@H](CCC(N)=O)[C@]\3(C)CC(N)=O)[C@@H](CCC(N)=O)[C@]2(C)CC(N)=O.[CH2-][C@H]1O[C@@H](n2cnc3c(N)ncnc32)[C@H](O)[C@@H]1O.[Co] [COENZYME B12] | 20 |
| COC(=O)[C@H]1[C@H]2C[C@H]3c4[nH]c5ccccc5c4CCN3C[C@@H]2CC[C@@H]1O [CORYNANTHINE] | 2 |
| CC(=O)Oc1c(C)cccc1C(=O)O [CRESOPIRINE] | 1 |
| Cl.NCCS [CYSTEAMINE HYDROCHLORIDE] | 19 |
| C=CC(C1=CC(=O)C(OC)=CC1=O)c1ccc(O)cc1 (stereo not drawn) [DALBERGIONE. 4-METHOXY-4'-HYDROXY-] | 90 |
| CC(=O)O[C@@H]1C[C@H]2C(C)(C)C(=O)C=C[C@]2(C)[C@H]2CC[C@]3(C)C(=CC(=O)O[C@H]3c3ccoc3)[C@@]21C [DEOXYGEDUNIN] | 0 |
| CC(=O)O[C@H]1C[C@@H](OC(C)=O)C(C)(C)[C@@H]2C[C@@H](OC(C)=O)[C@@]3(C)C4=CC(=O)O[C@@H](c5ccoc5)[C@]4(C)CC[C@@H]3[C@@]12C [DEOXYKHIVORIN] | 1 |
| C=C[C@@]1(C)CC(=O)[C@@]2(O)[C@](C)(O1)[C@@H](O)[C@@H](O)C1C(C)(C)CC[C@H](O)[C@@]12C (stereo partly drawn) [DESACETYLCOLFORSIN] | 1 |
| CC(=O)Oc1cccc2c1C(=O)c1c(OC(C)=O)cc(C(=O)O)cc1C2=O [DIACERIN] | 0 |
| Cc1c(N(C)CS(=O)(=O)[O-])c(=O)n(-c2ccccc2)n1C.[Na+] [DIPYRONE] | 2 |

Reference: publication PMC6627609, “Targeting Quorum Sensing: High-Throughput Screening to Identify Novel LsrK Inhibitors” (International Journal of Molecular Sciences, 2019)
